This is an account of results in article PMC11052071, “Novel JAK Inhibitors to Reduce Graft-Versus-Host Disease after Allogeneic Hematopoietic Cell Transplantation in a Preclinical Mouse Model” (Molecules, 2024).

One experiment deals with JAK2 (Homo sapiens, UniProt O60674). As to the kind of experiment: Z'-LYTE enzyme activity assay (SelectScreen Kinase Profiling), JAK2.
The test system of the next experiment is CXCR3. The experiment is described as follows: CXCR3 expression in activated primary murine T cells (flow cytometry). It counts as cell-based, B6 mice. As to conditions: anti-CD3/CD28 activated, 3 days, dose-dependent (0.32-1000 nM). From the text: To identify the top candidates whose effects on GvHD will be further tested in vivo, we next screened the WU derivatives by evaluating their functional inhibitory activity on the expression of CXCR3 in primary murine T cells activated by anti-CD3/CD28 beads. CXCR3 is a chemokine receptor and surrogate marker of IFNGR-JAK1/JAK2 signaling.
Figure 3 Inhibitory effect of WU derivatives on the expression of CXCR3 compared to commercially available JAK inhibitors in primary murine T cells. Primary murine T cells were isolated from B6 mice and treated with WU derivatives or known JAK inhibitors (in the order of doses of each drug from the left: 0, 0.32, 1.6, 8, 40, 200, 1000 nM) in the presence of anti-CD3/CD28 activators. After 3 days, the expression of CXCR3 on (A) CD3, (B) CD4, and (C) CD8 T cells was determined by flow cytometry.
T cells from in vitro primary murine T cell culture, fresh peripheral blood, or whole splenocytes were analyzed according to cell surface and intracellular markers. Surface markers were directly stained with flow antibodies for 20 min at 4 °C. For intracellular staining (FOXP3 and T-bet), cells were fixed and permeabilized after surface staining using appropriate buffers (One-step intracellular nuclear protein staining protocol, eBioscience, San Diego, CA, USA) and stained with flow antibodies. The antibodies used for flow cytometric analyses for mouse cells were as follows: FOXP3, T-BET, and CD183 (eBioscience, San Diego, CA, USA); CD3, H2-Kb, H2-Kd, CD4, B220, CD11b, CD11c, Ly6C, and DEC205 (BioLegend, San Diego, CA); and CD8, CD45.2, CD80, and Ly6G (BD Pharmingen, San Jose, CA, USA). All cells were run on a ZE5 Cell Analyzer (BD Biosciences, Mountain View, CA, USA) or Attune® NxT (Thermofisher Scientific, Waltham, MA, USA) and analyzed with the FlowJo software, version 10.9.0 (FlowJo LLC., Ashland, OR, USA). […]
For orientation: Flow cytometry measures light scatter and fluorescence of single cells or particles in a stream.

A further experiment addresses T1, JAK3 (Homo sapiens, UniProt P52333).
T1 sequence (P52333 1-1124): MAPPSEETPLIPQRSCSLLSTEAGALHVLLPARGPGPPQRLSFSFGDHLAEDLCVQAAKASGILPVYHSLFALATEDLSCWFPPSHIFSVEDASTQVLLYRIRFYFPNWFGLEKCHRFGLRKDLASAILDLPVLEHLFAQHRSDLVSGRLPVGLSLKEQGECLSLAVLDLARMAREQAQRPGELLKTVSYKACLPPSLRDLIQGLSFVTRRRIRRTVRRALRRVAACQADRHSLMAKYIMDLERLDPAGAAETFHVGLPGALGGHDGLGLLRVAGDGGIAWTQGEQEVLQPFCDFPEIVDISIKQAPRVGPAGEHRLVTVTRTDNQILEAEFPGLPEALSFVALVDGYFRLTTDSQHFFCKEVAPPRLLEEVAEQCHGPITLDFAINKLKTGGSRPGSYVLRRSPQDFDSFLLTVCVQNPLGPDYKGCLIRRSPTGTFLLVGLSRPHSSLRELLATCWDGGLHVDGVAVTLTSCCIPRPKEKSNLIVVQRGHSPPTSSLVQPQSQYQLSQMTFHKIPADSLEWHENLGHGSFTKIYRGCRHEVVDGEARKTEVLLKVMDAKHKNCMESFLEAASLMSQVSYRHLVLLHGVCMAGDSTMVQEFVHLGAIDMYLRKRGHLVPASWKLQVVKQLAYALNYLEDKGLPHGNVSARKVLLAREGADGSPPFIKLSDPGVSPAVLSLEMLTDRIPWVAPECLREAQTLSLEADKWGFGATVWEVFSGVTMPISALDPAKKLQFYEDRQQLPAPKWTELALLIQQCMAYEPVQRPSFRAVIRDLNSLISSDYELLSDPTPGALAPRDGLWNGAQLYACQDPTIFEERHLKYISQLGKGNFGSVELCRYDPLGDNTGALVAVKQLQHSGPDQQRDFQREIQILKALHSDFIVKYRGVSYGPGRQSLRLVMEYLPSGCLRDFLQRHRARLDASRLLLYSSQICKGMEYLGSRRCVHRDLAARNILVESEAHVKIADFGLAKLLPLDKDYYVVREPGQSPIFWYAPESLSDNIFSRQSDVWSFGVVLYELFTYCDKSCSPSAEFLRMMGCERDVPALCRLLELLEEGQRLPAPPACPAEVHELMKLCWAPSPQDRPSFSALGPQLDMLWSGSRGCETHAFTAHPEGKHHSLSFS
As to the kind of experiment: Z'-LYTE enzyme activity assay (SelectScreen Kinase Profiling), JAK3.

Sequence of JAK2 (O60674 whole entry): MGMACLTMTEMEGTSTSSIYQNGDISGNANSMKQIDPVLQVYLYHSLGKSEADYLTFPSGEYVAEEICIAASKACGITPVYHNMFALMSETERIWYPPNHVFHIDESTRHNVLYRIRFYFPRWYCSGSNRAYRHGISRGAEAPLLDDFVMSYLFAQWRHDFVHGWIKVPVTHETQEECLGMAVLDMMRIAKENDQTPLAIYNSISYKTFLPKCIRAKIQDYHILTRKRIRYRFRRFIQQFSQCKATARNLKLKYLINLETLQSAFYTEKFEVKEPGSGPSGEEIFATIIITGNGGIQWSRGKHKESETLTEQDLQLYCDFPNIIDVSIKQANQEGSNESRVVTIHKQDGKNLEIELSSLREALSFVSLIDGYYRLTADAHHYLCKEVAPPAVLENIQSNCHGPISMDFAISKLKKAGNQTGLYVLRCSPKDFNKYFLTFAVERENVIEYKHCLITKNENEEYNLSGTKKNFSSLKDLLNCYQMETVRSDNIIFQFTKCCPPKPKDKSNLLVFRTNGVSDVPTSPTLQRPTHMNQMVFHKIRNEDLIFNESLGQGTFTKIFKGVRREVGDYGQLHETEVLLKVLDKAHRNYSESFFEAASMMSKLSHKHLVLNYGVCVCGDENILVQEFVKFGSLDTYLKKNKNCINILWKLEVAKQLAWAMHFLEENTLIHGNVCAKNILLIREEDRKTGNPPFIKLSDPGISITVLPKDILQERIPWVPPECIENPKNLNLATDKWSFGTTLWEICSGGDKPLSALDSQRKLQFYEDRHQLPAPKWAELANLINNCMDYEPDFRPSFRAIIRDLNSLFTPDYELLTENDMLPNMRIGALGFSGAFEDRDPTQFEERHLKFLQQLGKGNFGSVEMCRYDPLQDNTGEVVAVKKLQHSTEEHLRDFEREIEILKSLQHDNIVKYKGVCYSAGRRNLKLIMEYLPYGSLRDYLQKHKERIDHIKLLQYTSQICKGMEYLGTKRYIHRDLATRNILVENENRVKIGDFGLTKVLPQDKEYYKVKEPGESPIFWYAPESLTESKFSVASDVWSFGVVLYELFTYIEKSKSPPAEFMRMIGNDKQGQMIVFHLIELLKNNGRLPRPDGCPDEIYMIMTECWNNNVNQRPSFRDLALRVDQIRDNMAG

By IC50 is commonly meant the concentration that gives 50% inhibition. A low value points to inhibition by little substance. Consider `CCS(=O)(=O)NC1CC2(C1)CC(CC#N)(n1cc(-c3ncnc4[nH]ccc34)cn1)C2` (stereo not drawn) [WU4], for which the half-maximal inhibitory concentration (IC50) amounted to 2.26 nM at JAK2 (IC50 JAK2, ATP at 1 mM); 0.133 nM against JAK2 (IC50 JAK2, ATP at app. Km); 84 nM on JAK3 (IC50 JAK3, ATP at 1 mM); 1.14 nM against JAK3 (IC50 JAK3, ATP at app. Km). For the same compound, in the experiment on CXCR3, the “CXCR3 expression on T cells” value was “significant reductions in CXCR3 expression”.
For `N#CCC1(n2cc(-c3ncnc4[nH]ccc34)cn2)CC2(CC(NS(=O)(=O)C(F)(F)F)C2)C1` (stereo not drawn) [WU6], the IC50 was determined as 6.96 nM against JAK2 (IC50 JAK2, ATP at 1 mM); 0.347 nM against JAK2 (IC50 JAK2, ATP at app. Km); 311 nM at JAK3 (IC50 JAK3, ATP at 1 mM); 6.4 nM on JAK3 (IC50 JAK3, ATP at app. Km). Besides, the “CXCR3 expression on T cells” value in the experiment with CXCR3 is “significantly downregulated”.
Turning to `N#CCC1(n2cc(-c3ncnc4[nH]ccc34)cn2)CCS(=O)(=O)CC1` [WU8], the IC50 at JAK2 (IC50 JAK2, ATP at 1 mM) came out at 14.9 nM; at JAK2 (IC50 JAK2, ATP at app. Km), 0.535 nM; at JAK3 (IC50 JAK3, ATP at 1 mM) it was 549 nM; against JAK3 (IC50 JAK3, ATP at app. Km) it was 18.3 nM. Further, in the experiment on CXCR3, the “CXCR3 expression on T cells” value is reported as “significant reductions in CXCR3 expression”.
